Assay results as given in patent US10160705B2, “Class of HDAC inhibitors expands the renal progenitor cells population and improves the rate of recovery from acute kidney injury” (University of Pittsburgh—Of the Commonwealth System of …, priority 2011, dated 2018).

Experiments:
zebrafish embryos = assay: Phenotypic screen for edema and survival in zebrafish larvae at 72 hpf; settings: for phenotype in initial chemical screen: 10 μM, larvae at 72 hpf; for Dead / Edemic 1 (E1) / Edemic 2 (E2) / Edemic 3 (E3) / Wild-type (WT): number of larvae (of 36), 3 μM from 2 hpf, scored at 72 hpf
Description: The screen was performed in zebrafish embryos using the National Cancer Institute's Developmental Therapeutics Program (NCI/DTP) Diversity Set I. This library contains 1990 compounds selected by pharmacophore modeling to represent the more than 140,000 small molecules maintained in the NCI/DTP Open Repository. Compounds from the NCI/DTP Diversity Set I were diluted to 10 μM in E3 embryo medium (5 mM NaCl, 0.33 mM CaCl2, 0.33 mM MgSO4, and 0.17 mM KCl) in a final DMSO concentration of 0.5% and arrayed in 96-well plates. Beginning at approximately 2 hpf, embryos were transferred to each well in groups of five using a glass pipette. The plates were incubated at 28.5° C. for 70 hours. Individual wells were then scored for a dominant phenotype, representative of at least four of the five embryos. The primary objective was to identify compounds that caused edema in treated embryos at 72 hpf. Small molecules generating edema were retested once for verification, before obtaining additional compound from the NCI/DTP Open Repository.
PTBA was synthesized as described below. Hydroxyurea and aphidicolin were obtained from Sigma-Aldrich. Groups of 20 to 30 chorionated 2 hpf embryos were arrayed in individual wells of 12-well plates. E3 medium was removed with a glass pipette and replaced with 1.5 ml treatment solutions containing 0.5% DMSO in E3 with or without compound at the reported concentrations. Treatments for all studies were initiated at 2 hpf, except for the temporal studies (FIG. 6) and the HUA studies (FIG. 11). HUA studies were performed as described previously (Zhang, L., et al. Cell cycle progression is required for zebrafish somite morphogenesis but not segmentation clock function. Development 135, 2065-2070, (2008)), with the following modifications. HUA in 0.5% DMSO was added at early gastrulation (5 hpf) and PTBA was subsequently added at late gastrulation (8 hpf) to allow for penetration of the proliferation inhibitors. All embryos were incubated at 28.5° C. until the required developmental stage.
Following 70 hours of treatment (as described above), edemic phenotypes in 72 hpf larvae were scored using a phenotype-based classification system. Wild type: no visible edema or developmental delay. […] Significant effects (p<0.05) on survival were determined by two-tailed Fisher's exact test in comparison with the 0 μM PTBA treatment group.
PTBA and methyl-4-(phenylthio)butanoate were synthesized as described above. 4-(Naphthalen-2-ylthio)butanoic acid (NSC2733) and 3-(phenylthio)benzoic acid (NSC113994), were obtained from the NCI/DTP Open Repository. APHA compound 8, Apicidin, butanoic acid, PBA, 4-phenoxybutanoic acid, 5-phenylpentanoic acid, Scriptaid, TSA, and valproic acid were obtained from Sigma-Aldrich. MS-275 and SAHA were obtained from Cayman Chemical Co. 4-(phenylsulfonyl)butanoic acid was obtained from Matrix Scientific. Tubacin was a gift of Dr. Ralph Mazitschek of the Broad Institute (Cambridge, Mass.). The remaining PTBA analogs were synthesized. Three independent groups of 12 chorionated 2 hpf embryos were arrayed in individual wells of 24-well plates. E3 medium was removed with a glass pipette and replaced with 800 μl treatment solutions containing 0.5% DMSO in E3 with or without compound at the reported concentrations.
Phenotypic screening of PTBA analogs was performed identically to the concentration-response experiments detailed above. Embryos were treated with each PTBA analog from 2 to 72 hpf as described above.

kidney field = assay: In situ hybridization for kidney markers (pax2a, pax8, cdh17, wt1a, slc4a4, slcl2a1); type: in vivo, zebrafish; settings: in situ hybridization, data not shown
Description: PTBA was synthesized as described below. Hydroxyurea and aphidicolin were obtained from Sigma-Aldrich.
In situ hybridization and immunocytochemistry: In situ hybridization was performed as previously described with some modifications.142 Hybridization temperature was 65° C. Embryos were blocked in 2% blocking reagent (Roche) with 5% sheep serum in MAB (100 mM maleic acid and 150 mM NaCl [pH 7.5]). Whole-mount immunocytochemistry with 1:25 mouse anti-α6F antibody (Developmental Studies Hybridoma Bank) and 1:100 Cy3 secondary antibody (Jackson ImmunoResearch) was performed as described previously.108 Embryos were embedded in JB-4 for sectioning per the manufacturer's instructions (Polysciences), sectioned at 5 μm, and mounted with Cytoseal 60 (Richard-Allan Scientific).

renal progenitor cells = assay: In situ hybridization for lhx1a expression in 10-somite embryos (renal progenitor cell expansion); type: in vivo; settings: for responders at 3 µM: read-out: lhx1a expansion, percent of treated embryos; on Lhx1a expansion caused by analog treatment, 200 nM: key: effective (+); partially effective (+/−); ineffective (−); Analogs that killed all embryos at a given concentration before reaching 10 somites are listed as XX; on Lhx1a expansion caused by analog treatment, 3 μM: key: effective (+); partially effective (+/−); ineffective (−); Analogs that killed all embryos at a given concentration before reaching 10 somites are listed as XX; on Lhx1a expansion caused by analog treatment, 400 nM: key: effective (+); partially effective (+/−); ineffective (−); Analogs that killed all embryos at a given concentration before reaching 10 somites are listed as XX; on Lhx1a expansion caused by analog treatment, 800 nM: key: effective (+); partially effective (+/−); ineffective (−); Analogs that killed all embryos at a given concentration before reaching 10 somites are listed as XX
Summary of the method: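 Zebrafish embryos treated with compound, then colorimetric whole-mount in situ hybridization (65° C) for lhx1a mRNA at 10 somites. Embryos with expanded kidney field counted manually as percent of total. EC50 taken as 50% point of percent-expansion trendline; compounds also classed effective, partial or ineffective versus PTBA at matched concentration.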

human HDACs = assay: Fluorescence histone deacetylation assay with HeLa cell nuclear extract; type: biochemical; settings: 5 mM compound
Description: To evaluate this in vitro, the deacetylation of a fluorescent peptide substrate was measured in the presence of human HDACs.
In vitro HDAC activity assays were performed using a fluorescence HDAC assay kit (Active Motif) according to the manufacturer's instructions. For maintaining compound solubility at 5 mM, the final DMSO concentration in all assay wells was increased to 5%. Fluorescence was detected using an M5 Plate Reader ([…])

[1] = 3 μM from 2 hpf, 10-somite embryos
[2] = Danio rerio, 3 μM from 2 hpf, 10-somite embryos

SMILES	phenotype in initial chemical screen (zebrafish embryos)	size of the kidney field (kidney field)	Dead (zebrafish embryos)	Edemic 1 (E1) (zebrafish embryos)	Edemic 2 (E2) (zebrafish embryos)	Edemic 3 (E3) (zebrafish embryos)	Wild-type (WT) (zebrafish embryos)	Lhx1a expansion caused by analog treatment, 3 μM (renal progenitor cells; [1])	further results
N=C(N)SCc1ccc(Cl)cc1Cl.O=[N+]([O-])c1c(O)c(Cl)cc(Cl)c1Cl [NSC35400]	pericardial edema	did not affect the size of the kidney field							
COc1ccc(/C=C(\C#N)C(N)=O)c(OC)c1 [NSC134664]	pericardial edema	did not affect the size of the kidney field							
N=C(N)c1ccc(N=Nc2c(O)ccc3c2[nH]c2ccccc23)cc1 [NSC357777]	pericardial edema	did not affect the size of the kidney field							
O=C(O)CCCS(=O)(=O)c1ccccc1 [PSOBA, 4-(phenylsulfonyl)butanoic acid, reference compound]			0	0	0	0	36	−	lhx1a expansion, percent of treated embryos (renal progenitor cells; [1]): no ability to expand renal progenitor cells; HDAC activity elicited by 10 μg HeLa extract, percent of the control value (human HDACs): 70%
CCC(=O)CCCCC[C@@H]1NC(=O)[C@H]2CCCCN2C(=O)[C@H]([C@@H](C)CC)NC(=O)[C@H](Cc2cn(OC)c3ccccc23)NC1=O [apicidin, reference compound]			36	0	0	0	0		Lhx1a expansion caused by analog treatment, 200 nM (renal progenitor cells; 200 nM from 2 hpf, 10-somite embryos): −; Lhx1a expansion caused by analog treatment, 400 nM (renal progenitor cells; 400 nM from 2 hpf, 10-somite embryos): +/−; treated embryos killed (renal progenitor cells; 800 nM): 69%; Lhx1a expansion caused by analog treatment, 800 nM (renal progenitor cells; 800 nM from 2 hpf, 10-somite embryos): XX^1; embryos surviving treatment (renal progenitor cells; 800 nM, n=36): 31%; lethality before the 10-somite stage (renal progenitor cells; 1.5 μM): lethal; lethality before the 10-somite stage (renal progenitor cells; 3 μM): killed all treated embryos; responders at 0.4 µM (renal progenitor cells; Danio rerio, read-out: lhx1a expansion, percent of treated embryos, 400 nM from 2 hpf, 10-somite embryos): 22%
CCCC(=O)O [butanoic acid, reference compound]			1	0	0	0	35	−	
CC(C)(C)OC(=O)CCCSc1ccccc1 [tert-butyl 4-(phenylthio)butanoate]			0	3	0	0	33	+/−	responders at 3 µM (renal progenitor cells; [2]): 25%
O=C(CCCCCCC(=O)Nc1ccc([C@H]2O[C@@H](CSc3nc(-c4ccccc4)c(-c4ccccc4)o3)C[C@@H](c3ccc(CO)cc3)O2)cc1)NO [tubacin, reference compound]			0	0	0	0	36	−	effect on zebrafish embryos in the phenotypic screen (zebrafish embryos; 3 μM): appeared wild-type
CCCC(CCC)C(=O)O [valproic acid, reference compound]			0	11	0	0	25	+/−	responders at 3 µM (renal progenitor cells; [2]): 20%
